From patent publication US20080275032A1, “Pyridazinone compounds” (priority 2006, published 2008)
pIC50: −log10 of the molar value. Structures can show the parent of a compound that is named as a salt.

These compounds were tested against HCV NS5B polymerase (Hepatitis C virus genotype 1b, UniProt P26663) (assay: biochemical). Conditions: HCV polymerase inhibition, 50 nM enzyme, 2 h at room temperature, FlashPlate [α-33P]GTP incorporation.
HCV NS5B polymerase, sequence (P26663 2420-3010): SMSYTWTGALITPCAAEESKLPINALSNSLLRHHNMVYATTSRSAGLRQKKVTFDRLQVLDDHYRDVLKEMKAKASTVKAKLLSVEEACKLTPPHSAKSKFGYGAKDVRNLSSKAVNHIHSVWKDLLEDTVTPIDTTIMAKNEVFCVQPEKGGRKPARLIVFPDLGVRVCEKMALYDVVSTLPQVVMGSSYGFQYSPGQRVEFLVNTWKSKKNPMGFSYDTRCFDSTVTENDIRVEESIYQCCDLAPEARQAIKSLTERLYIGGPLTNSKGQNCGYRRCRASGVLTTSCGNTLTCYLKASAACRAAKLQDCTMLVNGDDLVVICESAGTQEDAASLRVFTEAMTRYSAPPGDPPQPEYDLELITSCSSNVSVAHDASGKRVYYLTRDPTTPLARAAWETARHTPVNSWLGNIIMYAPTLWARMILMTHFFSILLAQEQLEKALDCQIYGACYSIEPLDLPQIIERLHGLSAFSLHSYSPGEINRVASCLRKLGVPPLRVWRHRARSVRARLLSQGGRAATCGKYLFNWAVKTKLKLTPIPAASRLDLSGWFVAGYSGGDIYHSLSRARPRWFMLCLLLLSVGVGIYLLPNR
Procedure: NS5B Polymerase Inhibition Assay (IC50)
Compounds were tested for HCV polymerase inhibition. Assays were performed in a 96-well streptavidin-coated FlashPlate using 50 nM enzyme, 0.5 μCi of [α-^33P]GTP, 0.6 μM GTP, and 50 nM 5′biotinylated oligo (rG13)/poly rC in 20 mM Tris-HCl, pH 7.5, 5 mM MgCl2, 20 mM NaCl, 5 mM dithiothreitol, and 0.1 g/L BSA. The reaction was stopped by aspiration after 2 h at room temperature and the plate was washed several times. After washing, incorporated radioactivity was counted using a Microbeta scintillation counter.
`CC(C)=Cc1nn(CCC2CC2)c(=O)c(C2=Nc3ccc(NS(C)(=O)=O)cc3S(=O)(=O)N2)c1O` [N-{3-[2-(2-Cyclopropyl-ethyl)-5-hydroxy-6-(2-methyl-propenyl)-3-oxo-2,3-dihydro-pyridazin-4-yl]-1,1-dioxo-1,2-dihydro-1λ^6-benzo[1,2,4]thiadiazin-7-yl}-methanesulfonamide] gave a pIC50 greater than 7.00. With `CC(C)(C)CCn1nc(-c2cccs2)c(O)c(C2=NS(=O)(=O)c3cc(NS(N)(=O)=O)ccc3N2)c1=O` [N-{3-[2-(3,3-Dimethyl-butyl)-5-hydroxy-3-oxo-6-thiophen-2-yl-2,3-dihydro-pyridazin-4-yl]-1,1-dioxo-1,2-dihydro-1λ^6-benzo[1,2,4]thiadiazin-7-yl}-sulfamide] the pIC50 was greater than 7.00. `CCC(C)(C)CCn1nc(-c2cccs2)c(O)c(C2=NS(=O)(=O)c3cc(NS(C)(=O)=O)ccc3N2)c1=O` [N-{3-[2-(3,3-Dimethyl-pentyl)-5-hydroxy-3-oxo-6-thiophen-2-yl-2,3-dihydro-pyridazin-4-yl]-1,1-dioxo-1,2-dihydro-1λ^6-benzo[1,2,4]thiadiazin-7-yl}-methanesulfonamide] showed a pIC50 greater than 7.00. `CC(C)(C)CCn1nc(-c2cccs2)c(O)c(C2=Nc3ccc(NS(C)(=O)=O)cc3S(=O)(=O)N2)c1=O` [N-{3-[2-(3,3-dimethyl-butyl)-5-hydroxy-3-oxo-6-thiophen-2-yl-2,3-dihydro-pyridazin-4-yl]-1,1-dioxo-1,2-dihydro-1λ^6-benzo[1,2,4]thiadiazin-7-yl}-methanesulfonamide, sodium salt] was tested, and the pIC50 was greater than 7.00. In the case of `CS(=O)(=O)Nc1ccc2c(c1)S(=O)(=O)N=C(c1c(O)c(-c3cccs3)nn(Cc3ccc(F)c(Cl)c3)c1=O)N2` [N-{3-[2-(3-Chloro-4-fluoro-benzyl)-5-hydroxy-3-oxo-6-thiophen-2-yl-2,3-dihydro-pyridazin-4-yl]-1,1-dioxo-1,2-dihydro-1λ^6-benzo[1,2,4]thiadiazin-7-yl}-methanesulfonamide], the pIC50 was greater than 7.00. For `CS(=O)(=O)Nc1ccc2c(c1)S(=O)(=O)NC(c1c(O)c(-c3cncs3)nn(Cc3ccc(F)cc3)c1=O)=N2` [N-{3-[2-(4-Fluoro-benzyl)-5-hydroxy-3-oxo-6-thiazol-5-yl-2,3-dihydro-pyridazin-4-yl]-1,1-dioxo-1,2-dihydro-1λ^6-benzo[1,2,4]thiadiazin-7-yl}-methanesulfonamide], the pIC50 was greater than 7.00. `CS(=O)(=O)Nc1ccc2c(c1)S(=O)(=O)N=C(c1c(O)c(-c3cccs3)nn(Cc3ccc(F)cc3)c1=O)N2` [N-{3-[2-(4-Fluoro-benzyl)-5-hydroxy-3-oxo-6-thiophen-2-yl-2,3-dihydro-pyridazin-4-yl]-1,1-dioxo-1,2-dihydro-1λ^6-benzo[1,2,4]thiadiazin-7-yl}-methanesulfonamide] was tested, and the pIC50 was greater than 7.00. With `CN1C(c2c(O)c(-c3cccs3)nn(Cc3ccc(F)cc3)c2=O)=NS(=O)(=O)c2cc(NS(C)(=O)=O)ccc21` [N-{3-[2-(4-Fluoro-benzyl)-5-hydroxy-3-oxo-6-thiophen-2-yl-2,3-dihydro-pyridazin-4-yl]-4-methyl-1,1-dioxo-1,4-dihydro-1λ^6-benzo[1,2,4]thiadiazin-7-yl}-methanesulfonamide] the pIC50 was 5.00 to 6.00. With `CN(c1ccc2c(c1)S(=O)(=O)NC(c1c(O)c(CC(C)(C)C)nn(CC3CCC3)c1=O)=N2)S(C)(=O)=O` [N-{3-[2-Cyclobutylmethyl-6-(2,2-dimethyl-propyl)-5-hydroxy-3-oxo-2,3-dihydro-pyridazin-4-yl]-1,1-dioxo-1,2-dihydro-1λ^6-benzo[1,2,4]thiadiazin-7-yl}-N-methyl-methanesulfonamide] the pIC50 was 5.00 to 6.00. In the case of `CCCC(C)n1nc(-c2cccs2)c(O)c(C2=NS(=O)(=O)c3cc(NS(C)(=O)=O)ccc3N2)c1=O` (stereo not shown) [N-{3-[5-Hydroxy-2-(1-methyl-butyl)-3-oxo-6-thiophen-2-yl-2,3-dihydro-pyridazin-4-yl]-1,1-dioxo-1,2-dihydro-1λ^6-benzo[1,2,4]thiadiazin-7-yl}-methanesulfonamide], the pIC50 was 6.00 to 7.00. Compound `COCCn1nc(-c2cccs2)c(O)c(C2=NS(=O)(=O)c3cc(NS(C)(=O)=O)ccc3N2)c1=O` [N-{3-[5-Hydroxy-2-(2-methoxy-ethyl)-3-oxo-6-thiophen-2-yl-2,3-dihydro-pyridazin-4-yl]-1,1-dioxo-1,2-dihydro-1λ^6-benzo[1,2,4]thiadiazin-7-yl}-methanesulfonamide] has a pIC50 greater than 7.00. `COC(C)(C)CCn1nc(-c2cccs2)c(O)c(C2=NS(=O)(=O)c3cc(NS(C)(=O)=O)ccc3N2)c1=O` [N-{3-[5-Hydroxy-2-(3-methoxy-3-methyl-butyl)-3-oxo-6-thiophen-2-yl-2,3-dihydro-pyridazin-4-yl]-1,1-dioxo-1,2-dihydro-1λ^6-benzo[1,2,4]thiadiazin-7-yl}-methanesulfonamide] gave a pIC50 greater than 7.00. With `CC(C)CCn1nc(-c2cc[nH]c2)c(O)c(C2=Nc3ccc(NS(C)(=O)=O)cc3S(=O)(=O)N2)c1=O` [N-{3-[5-Hydroxy-2-(3-methyl-butyl)-3-oxo-6-(1H-pyrrol-3-yl)-2,3-dihydro-pyridazin-4-yl]-1,1-dioxo-1,2-dihydro-1λ^6-benzo[1,2,4]thiadiazin-7-yl}-methanesulfonamide] the pIC50 was greater than 7.00. In the case of `C/C(=C\c1nn(CCC(C)C)c(=O)c(C2=NS(=O)(=O)c3cc(NS(C)(=O)=O)ccc3N2)c1O)C(F)(F)F` [N-{3-[5-Hydroxy-2-(3-methyl-butyl)-3-oxo-6-(3,3,3-trifluoro-2-methyl-propenyl)-2,3-dihydro-pyridazin-4-yl]-1,1-dioxo-1,2-dihydro-1λ^6-benzo[1,2,4]thiadiazin-7-yl}-methanesulfonamide], the pIC50 was 6.00 to 7.00. Compound `CC(C)CCn1nc(-c2ccccc2)c(O)c(C2=Nc3ccc(N(C)S(C)(=O)=O)cc3S(=O)(=O)N2)c1=O` [N-{3-[5-Hydroxy-2-(3-methyl-butyl)-3-oxo-6-phenyl-2,3-dihydro-pyridazin-4-yl]-1,1-dioxo-1,2-dihydro-1λ^6-benzo[1,2,4]thiadiazin-7-yl}-N-methyl-methanesulfonamide] has a pIC50 of 5.00 to 6.00. `CC(C)CCn1nc(-c2ccccc2)c(O)c(C2=Nc3ccc(NS(C)(=O)=O)cc3S(=O)(=O)N2)c1=O` [N-{3-[5-Hydroxy-2-(3-methyl-butyl)-3-oxo-6-phenyl-2,3-dihydro-pyridazin-4-yl]-1,1-dioxo-1,2-dihydro-1λ^6-benzo[1,2,4]thiadiazin-7-yl}-methanesulfonamide] showed a pIC50 greater than 7.00. Compound `CC(C)CCn1nc(-c2cncs2)c(O)c(C2=NS(=O)(=O)c3cc(NS(C)(=O)=O)ccc3N2)c1=O` [N-{3-[5-Hydroxy-2-(3-methyl-butyl)-3-oxo-6-thiazol-5-yl-2,3-dihydro-pyridazin-4-yl]-1,1-dioxo-1,2-dihydro-1λ^6-benzo[1,2,4]thiadiazin-7-yl}-methanesulfonamide] has a pIC50 greater than 7.00. `CC(C)CCn1nc(-c2cccs2)c(O)c(C2=Nc3ccc(N(C(C)C)S(C)(=O)=O)cc3S(=O)(=O)N2)c1=O` [N-{3-[5-Hydroxy-2-(3-methyl-butyl)-3-oxo-6-thiophen-2-yl-2,3-dihydro-pyridazin-4-yl]-1,1-dioxo-1,2-dihydro-1λ^6-benzo[1,2,4]thiadiazin-7-yl}-N-isopropyl-methanesulfonamide] was tested, and the pIC50 was 5.00 to 6.00. Compound `CC(C)CCn1nc(-c2cccs2)c(O)c(C2=NS(=O)(=O)c3cc(N(C)S(C)(=O)=O)ccc3N2C)c1=O` [N-{3-[5-Hydroxy-2-(3-methyl-butyl)-3-oxo-6-thiophen-2-yl-2,3-dihydro-pyridazin-4-yl]-4-methyl-1,1-dioxo-1,4-dihydro-1λ^6-benzo[1,2,4]thiadiazin-7-yl}-N-methyl-methanesulfonamide] has a pIC50 of 5.00 to 6.00. For `CC(C)CCn1nc(-c2ccn(C)c2)c(O)c(C2=Nc3ccc(NS(C)(=O)=O)cc3S(=O)(=O)N2)c1=O` [N-{3-[5-Hydroxy-2-(3-methyl-butyl)-6-(1-methyl-1H-pyrrol-3-yl)-3-oxo-2,3-dihydro-pyridazin-4-yl]-1,1-dioxo-1,2-dihydro-1λ^6-benzo[1,2,4]thiadiazin-7-yl}-methanesulfonamide], the pIC50 was greater than 7.00. In the case of `CC(C)=Cc1nn(CCC(C)C)c(=O)c(C2=NS(=O)(=O)c3cc(NS(C)(=O)=O)ccc3N2)c1O` [N-{3-[5-Hydroxy-2-(3-methyl-butyl)-6-(2-methyl-propenyl)-3-oxo-2,3-dihydro-pyridazin-4-yl]-1,1-dioxo-1,2-dihydro-1λ^6-benzo[1,2,4]thiadiazin-7-yl}-methanesulfonamide], the pIC50 was greater than 7.00. In the case of `CCC(C)CCn1nc(-c2cccs2)c(O)c(C2=NS(=O)(=O)c3cc(NS(C)(=O)=O)ccc3N2)c1=O` (stereo not shown) [N-{3-[5-Hydroxy-2-(3-methyl-pentyl)-3-oxo-6-thiophen-2-yl-2,3-dihydro-pyridazin-4-yl]-1,1-dioxo-1,2-dihydro-1λ^6-benzo[1,2,4]thiadiazin-7-yl}-methanesulfonamide], the pIC50 was greater than 7.00. `CN(c1ccc2c(c1)S(=O)(=O)NC(c1c(O)c(-c3cccs3)nn(CC3(C(F)(F)F)CC3)c1=O)=N2)S(C)(=O)=O` [N-{3-[5-Hydroxy-3-oxo-6-thiophen-2-yl-2-(1-trifluoromethyl-cyclopropylmethyl)-2,3-dihydro-pyridazin-4-yl]-1,1-dioxo-1,2-dihydro-1λ^6-benzo[1,2,4]thiadiazin-7-yl}-N-methyl-methanesulfonamide] gave a pIC50 greater than 7.00. Work on `CS(=O)(=O)Nc1ccc2c(c1)S(=O)(=O)N=C(c1c(O)c(-c3cccs3)nn(CC3(C(F)(F)F)CC3)c1=O)N2` [N-{3-[5-Hydroxy-3-oxo-6-thiophen-2-yl-2-(1-trifluoromethyl-cyclopropylmethyl)-2,3-dihydro-pyridazin-4-yl]-1,1-dioxo-1,2-dihydro-1λ^6-benzo[1,2,4]thiadiazin-7-yl}-methanesulfonamide] yielded a pIC50 greater than 7.00. `CCC(C)(C)c1nn(CCC(C)C)c(=O)c(C2=NS(=O)(=O)c3cc(NS(C)(=O)=O)ccc3N2)c1O` [N-{3-[6-(1,1-Dimethyl-propyl)-5-hydroxy-2-(3-methyl-butyl)-3-oxo-2,3-dihydro-pyridazin-4-yl]-1,1-dioxo-1,2-dihydro-1λ^6-benzo[1,2,4]thiadiazin-7-yl}-methanesulfonamide] was tested, and the pIC50 was 6.00 to 7.00.
